# Measurements: patent US20190016689A1, “NOVEL FLUORINATED QUINAZOLINE DERIVATIVES AS EGFR INHIBITORS” (TRILLIUM THERAPEUTICS INC., priority 2016, published 2019)
# Where two headings read alike, the source gives them in different places.
# Tests used:
# [1] = Plasma and brain exposure in male CD-1 mice (Brain PK); assay type: in vivo; details: CD-1, mouse, brain; for AUC(0-t): read-out: AUC0-tlast; for half-life: read-out: Apparent t1/2 (converted); for MRT last: read-out: MRT0-tlast
# Method: Animals: Male CD-1 mice (20-25 g) from Charles River Labs will be acclimatized for a minimum of 5 days prior to dosing. Body weights will be recorded on the day of dosing. Food restriction: Animals dosed p.o. will be deprived of food overnight and fed ˜2 h following dosing. Clinical observations: Animals will be observed at the time of dosing and each sample collection. Any abnormalities will be documented. Dosing: Formulations will be administered i.v. via the tail vein and p.o. by gavage with disposable feeding needles. Sample collection: Terminal blood samples will be collected under O2/CO2 anesthesia by cardiac puncture and then the brain and lungs will be excised blotted and weighed. Sample processing/storage: All blood samples will be transferred into K2EDTA tubes and centrifuged (6,800 rpm for 5 min at 4° C.) to obtain plasma. All samples will be stored frozen at −80° C. until bioanalysis. Sample retention: Plasma, brain and lung samples will be analyzed and any remaining samples will be stored frozen at −80° C. until the study is completed.
# [2] = Log D determination (1-octanol/buffer); assay type: physicochemical
# Method: Prepare the stock solutions of test compounds and control compound progesterone in DMSO at the concentration of 30 mM. If test compound could not be dissolved completely, make a 10 mM stock solution with DMSO.
# Place 5 μL of stock solution (30 mM) or 15 μL of stock solution (10 mM) of each sample in order into their proper 96-well rack. […] Add one stir stick to each vial and seal using a molded PTFE/Silicone plug. […] After completion of incubation, remove the stir sticks using a big magnet. Then centrifuge the samples at 25° C. at 20,000 g for 20 minutes to separate the phases, and use pipette and syringe to remove the upper (1-octanol) and lower (buffer) phases to the empty tubes, respectively. Take aliquots of 5 μL from upper phases followed by addition of 495 μL of methanol. Vortex for 1 minute, and then take aliquots of 50 μL from the diluent followed by addition of 450 μL of methanol. And take aliquots of 50 μL from lower phases followed by addition of 450 μL of methanol. A certain proportion of ultrapure water may be used according to the peak shape. The dilution factor may be changed according to the Log D value and the LC/MS signal response.
# [3] = Chemical stability in PBS pH 7.4; assay type: physicochemical; details: 37° C.
# Method: For PBS pH7.4: Prepare 100 mM bulk Na2HPO4 solution and 100 mM bulk NaH2PO4 solution. Place Na2HPO4 solution on a stirrer and slowly add NaH2PO4 solution until the pH is nearly 7.4 (±0.05).
# The working solutions of test compound and control compound chlorambucil are prepared in DMSO at the concentration of 500 μM.
# Place 2 μL of working solution of each sample in order into their proper 96-well rack. Add 198 μL of pre-incubated PBS pH 7.4 or simulated intestinal fluid into each vial of the cap-less Sample plate to achieve a final concentration of […]. The assay is performed in duplicate. Seal using a molded PTFE/Silicone plug. Then transfer the Sample plate to the Eppendorf Thermomixer Comfort plate shaker and shake at 37° C. at 1100 RPM. Take one of the glass vials at designated time points including 0, 30, 60, 120 and 240 min. For each time point, the initiation of the reaction is staggered so all time points are terminated with 1000 μL of cold quench solution (acetonitrile containing internal standards (IS, 200 nM Labetalol, 100 nM Alprazolam and 2 μM Ketoprofen) at the same time. Vortex for 1 minute. Centrifuge the samples in plate at 3,220 g for 5 minutes at 4° C. Transfer 100 μL of the supernatant to a new plate. The supernatant may be diluted with 100 μL or 200 μL water according to the LC/MS signal response and peak shape. Mix well and analyze samples using LC/MS/MS.
# [4] = system: SK-MEL-28; test: NCI screening panel (SRB); assay type: cell-based; details: Homo sapiens, SK-MEL-28 (Melanoma), 48 h; for CC50: read-out: LC50 (the source's name)
# [5] = system: RXF393; test: NCI screening panel (SRB); assay type: cell-based; details: Homo sapiens, RXF 393, RXF393 (Renal), 48 h; for CC50: read-out: LC50 (the source's name)
# [6] = system: HCC-2998; test: NCI screening panel (SRB); assay type: cell-based; details: Homo sapiens, HCC-2998 (Colon), 48 h; for CC50: read-out: LC50 (the source's name)
# [7] = system: ACHN; test: NCI screening panel (SRB); assay type: cell-based; details: Homo sapiens, ACHN (Renal), 48 h; for CC50: read-out: LC50 (the source's name)
# [8] = system: K-562; test: NCI screening panel (SRB); assay type: cell-based; details: Homo sapiens, K562, K-562 (Leukemia), 48 h; for CC50: read-out: LC50 (the source's name)
# [9] = system: HOP-62; test: NCI screening panel (SRB); assay type: cell-based; details: Homo sapiens, HOP-62 (NSCLC), 48 h; for CC50: read-out: LC50 (the source's name)
# [10] = system: PC-3; test: NCI screening panel (SRB); assay type: cell-based; details: Homo sapiens, PC-3 (Prostate), 48 h; for CC50: read-out: LC50 (the source's name)
# [11] = system: HL-60(TB); test: NCI screening panel (SRB); assay type: cell-based; details: Homo sapiens, HL-60(TB) (Leukemia), 48 h; for CC50: read-out: LC50 (the source's name)
# [12] = molecular target: SRC (Homo sapiens, UniProt P12931); test: Kinase assays, selectivity panel (qPCR); details: read-out: % Control @ 300 nM
# Sequence of SRC (P12931 whole entry): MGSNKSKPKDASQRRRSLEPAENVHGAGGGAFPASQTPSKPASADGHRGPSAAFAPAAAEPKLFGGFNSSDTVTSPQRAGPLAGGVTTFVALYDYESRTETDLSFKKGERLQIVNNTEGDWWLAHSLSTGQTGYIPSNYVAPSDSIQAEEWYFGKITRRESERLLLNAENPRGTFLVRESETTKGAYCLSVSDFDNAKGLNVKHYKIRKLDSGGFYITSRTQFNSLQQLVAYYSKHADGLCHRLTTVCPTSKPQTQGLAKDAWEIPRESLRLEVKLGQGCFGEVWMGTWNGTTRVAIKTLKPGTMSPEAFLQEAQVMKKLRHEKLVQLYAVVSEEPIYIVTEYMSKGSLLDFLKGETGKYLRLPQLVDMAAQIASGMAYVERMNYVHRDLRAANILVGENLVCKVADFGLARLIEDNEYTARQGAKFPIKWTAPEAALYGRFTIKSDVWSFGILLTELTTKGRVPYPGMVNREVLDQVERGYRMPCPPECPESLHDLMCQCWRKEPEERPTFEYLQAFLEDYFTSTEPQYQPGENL
# [13] = system: NCI-H23; test: NCI screening panel (SRB); assay type: cell-based; details: Homo sapiens, NCI-H23 (NSCLC), 48 h; for CC50: read-out: LC50 (the source's name)
Compound,"Cmax ([1]; iv, i.v. 1 mg/kg free base) [ng/mL]","Tmax ([1]; iv, i.v. 1 mg/kg free base) [h]","AUC(0-t) ([1]; iv, i.v. 1 mg/kg free base) [ng·h/mL]","half-life ([1]; iv, i.v. 1 mg/kg free base) [h]","MRT last ([1]; iv, i.v. 1 mg/kg free base) [h]","AUC(0-inf) ([1]; po, p.o. 25 mg/kg free base) [ng·h/mL]","Cmax ([1]; po, p.o. 25 mg/kg free base) [ng/mL]","Tmax ([1]; po, p.o. 25 mg/kg free base) [h]","AUC(0-t) ([1]; po, p.o. 25 mg/kg free base) [ng·h/mL]","half-life ([1]; po, p.o. 25 mg/kg free base) [h]","MRT last ([1]; po, p.o. 25 mg/kg free base) [h]",logD ([2]; pH 2.0),logD ([2]; pH 7.4),Remaining Percentage (%) in PBS at pH 7.4 ([3]; 120 min) [%],Remaining Percentage (%) in PBS at pH 7.4 ([3]; 240 min) [%],GI50 [4] [µM],CC50 [4] [µM],GI50 [5] [µM],CC50 [5] [µM],GI50 [6] [µM],further results
"CN(C)C/C=C/C(=O)Nc1cc2c(Nc3ccc(F)c(Cl)c3)ncnc2cc1O[C@H]1CCOC1 [Afatinib, reference compound]",12.7,0.0833,44.5,4.97,7.01,704,83.3,4,688,3.69,8.64,-2.46,3.18,101.12,105.37,,,,,,
"CN(C)C/C=C/C(=O)Nc1cc2c(Nc3cccc(Cl)c3F)ncnc2cc1OCCOC(F)F.O=C(O)/C=C\C(=O)O [Example I-5-MA, (E)-N-[4-(3-chloro-2-fluoro-anilino)-7-[2-(difluoromethoxy)ethoxy]quinazolin-6-yl]-4-(dimethylamino)but-2-enamide dimaleic acid salt]",,,,,,,,,,,,-2.17,3.2,94.70,91.17,,,,,,
"CN(C)C/C=C/C(=O)Nc1cc2c(Nc3ccc(F)c(Cl)c3F)ncnc2cc1OCCOC(F)F.O=C(O)/C=C\C(=O)O.O=C(O)/C=C\C(=O)O [Example I-9-MA, (E)-N-[4-(3-chloro-2,4-difluoro-anilino)-7-[2-(difluoromethoxy)ethoxy]quinazolin-6-yl]-4-(dimethylamino)but-2-enamide di-maleic acid salt]",171,0.0833,397,7.11,6.6,5960,651,2,5900,3.44,6.78,,,,,2.29,36.2,0.351,15.1,1.14,"CC50 [6]: 5.67 µM; AUC(0-inf) ([1]; iv, i.v. 1 mg/kg free base): 420 ng·h/mL; GI50 [7]: < 0.01 µM; CC50 [7]: 6.01 µM; GI50 [8]: 0.459 µM; CC50 [8]: 61.9 µM; GI50 [9]: 1.35 µM; CC50 [9]: 41.5 µM; GI50 [10]: 2.55 µM; CC50 [10]: 58.5 µM; GI50 [11]: 1.73 µM; CC50 [11]: 32.2 µM; remaining activity at 0.3 µM [12]: 3.5%; GI50 [13]: 1.38 µM; CC50 [13]: 15.4 µM"
"O=C(/C=C/CN1CCCCC1)Nc1cc2c(Nc3ccc(F)c(Cl)c3F)ncnc2cc1OCCOC(F)F.O=C(O)/C=C\C(=O)O.O=C(O)/C=C\C(=O)O [Example I-10-MA, (E)-N-[4-(3-chloro-2,4-difluoro-anilino)-7-[2-(difluoromethoxy)ethoxy]quinazolin-6-yl]-4-(1-piperidyl)but-2-enamide di-maleic acid salt]",1110,0.25,1710,4.75,2.99,14000,3830,2,13900,3.25,3.68,,,,,2.49,36.5,0.959,33.3,1.8,"CC50 [6]: 7.85 µM; AUC(0-inf) ([1]; iv, i.v. 1 mg/kg free base): 1730 ng·h/mL; GI50 [7]: < 0.01 µM; CC50 [7]: 15 µM; GI50 [8]: 1.03 µM; CC50 [8]: > 100 µM; GI50 [9]: 1.62 µM; CC50 [9]: 39.5 µM; GI50 [10]: 2.38 µM; CC50 [10]: 51 µM; GI50 [11]: 1.75 µM; CC50 [11]: 30.8 µM; remaining activity at 0.3 µM [12]: 4.8%; GI50 [13]: 2.09 µM; CC50 [13]: > 100 µM"
